# Assay results taken from ChEMBL document CHEMBL1201862, “PubChem BioAssay data set” (2004).
#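 Briefly, cells in 96-well plates were exposed to five compound concentrations for 48 h, and endpoints were estimated by linear interpolation. GI50 marks 50% less growth.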 Active and inactive are the calls of the source. Rule as the data show it: active = GI50 up to about 1.1 µM and inactive = higher.
# Tests used:
# Experiment in all cases: NCI-60 cell line screen, 48 h
# [1] = tested on: DLD-1
# [2] = tested on: HOP-18
# [3] = tested on: LXFL 529
# [4] = tested on: XF498
# [5] = tested on: RXF 631
# [6] = tested on: DMS-273
# [7] = tested on: KM-20L2
# [8] = tested on: SNB-78
# [9] = tested on: M19-MEL
SMILES,GI50 [1],GI50 [2],GI50 [3],GI50 [4],GI50 [5],GI50 [6],GI50 [7],GI50 [8],GI50 [9]
CC(c1cccc2ccccc12)/[N+]([O-])=C/c1ccccc1 (stereo unspecified),> 100 µM (inactive),36.1 µM (inactive),> 100 µM (inactive),> 100 µM (inactive),> 100 µM (inactive),> 100 µM (inactive),> 100 µM (inactive),–,–
COC(=O)/C=C/C1C(C(=O)OC)C2(C(=O)OC)CCC1(C(=O)OC)N2 (stereo unspecified),> 100 µM (inactive),96.8 µM (inactive),> 100 µM (inactive),> 100 µM (inactive),> 100 µM (inactive),> 100 µM (inactive),> 100 µM (inactive),> 100 µM (inactive),> 100 µM (inactive)
O=c1[nH]c2c3ccccc3ccc2c2cc3c(cc12)OCO3,> 100 µM (inactive),2 µM (inactive),79.4 µM (inactive),84.1 µM (inactive),> 100 µM (inactive),67.1 µM (inactive),> 100 µM (inactive),> 100 µM (inactive),> 100 µM (inactive)
CCCCCCCCNC(=O)SCCCC,43.4 µM (inactive),31 µM (inactive),38.5 µM (inactive),13.8 µM (inactive),39.1 µM (inactive),31.4 µM (inactive),33.3 µM (inactive),–,40.5 µM (inactive)
Nc1c([N+](=O)[O-])nc(Cl)c2nncn12,> 58.9 µM (inactive),> 100 µM (inactive),> 78.9 µM (inactive),> 100 µM (inactive),> 100 µM (inactive),16.5 µM (inactive),> 87.1 µM (inactive),> 100 µM (inactive),> 100 µM (inactive)
COC(=O)[C@@H]1Cc2c([nH]c3ccccc23)[C@H](c2ccccc2)N1,35.2 µM (inactive),52.1 µM (inactive),54.5 µM (inactive),–,–,26.7 µM (inactive),> 100 µM (inactive),–,41.7 µM (inactive)
Clc1ccc(C2SCc3nc4ccccc4n32)cc1Cl (stereo unspecified),12.6 µM (inactive),< 0.01 µM (active),11.8 µM (inactive),12.1 µM (inactive),–,–,–,12.3 µM (inactive),> 10 µM (inactive)
CN1COc2c(n(C)c(=O)[nH]c2=O)C1,> 100 µM (inactive),> 100 µM (inactive),> 100 µM (inactive),> 100 µM (inactive),–,45.7 µM (inactive),> 100 µM (inactive),> 100 µM (inactive),> 100 µM (inactive)
COc1ccc2nc(NC(=O)C(=O)C(C#N)c3ccc(Cl)c(Cl)c3)sc2c1 (stereo unspecified),> 100 µM (inactive),–,> 100 µM (inactive),> 100 µM (inactive),> 100 µM (inactive),> 100 µM (inactive),> 100 µM (inactive),> 100 µM (inactive),> 100 µM (inactive)
CCC(C(=O)c1ccccc1)C(CCCC(=O)Nc1c(C)cccc1C)N=O (stereo unspecified),> 100 µM (inactive),> 100 µM (inactive),> 100 µM (inactive),> 100 µM (inactive),> 100 µM (inactive),> 100 µM (inactive),> 100 µM (inactive),> 100 µM (inactive),> 100 µM (inactive)
CC(C)C(=O)/C=C/c1ccccc1,84.7 µM (inactive),> 100 µM (inactive),> 100 µM (inactive),> 100 µM (inactive),–,65.2 µM (inactive),36.1 µM (inactive),33.1 µM (inactive),> 100 µM (inactive)
O=C(c1ccc(O)cc1)C1c2c3c(cc(O)c2C(c2ccc(O)cc2)C1c1cc(O)cc(O)c1)OC(c1ccc(O)cc1)C3c1cc2c(cc1O)OC(c1ccc(O)cc1)C2c1cc(O)cc(O)c1 (stereo unspecified),> 12.5 µM (inactive),–,> 12.5 µM (inactive),–,–,> 12.5 µM (inactive),> 12.5 µM (inactive),–,> 12.5 µM (inactive)
CCCc1ccc(/N=C\c2cc(OC)c(OC)c(OC)c2)cc1,> 75.9 µM (inactive),> 100 µM (inactive),99.3 µM (inactive),> 100 µM (inactive),–,> 83.4 µM (inactive),> 100 µM (inactive),> 100 µM (inactive),> 100 µM (inactive)
Cc1cc(Cl)ccc1NC(=O)C(=O)C(C(=O)c1ccccc1)C1OC(=O)c2ccccc21 (stereo unspecified),> 100 µM (inactive),> 100 µM (inactive),> 100 µM (inactive),> 100 µM (inactive),–,> 100 µM (inactive),> 100 µM (inactive),> 100 µM (inactive),> 100 µM (inactive)
O=C(/N=N/C(=O)OCc1ccccc1)OCc1ccccc1,–,> 100 µM (inactive),68.2 µM (inactive),> 100 µM (inactive),> 100 µM (inactive),91.6 µM (inactive),> 100 µM (inactive),> 100 µM (inactive),> 100 µM (inactive)
C=C1C(=O)OC2C1C(OC(=O)/C(C)=C\C)CC1(CO1)C1C(O)C=C(C)C21O (stereo unspecified),2.33 µM (inactive),10.9 µM (inactive),1.59 µM (inactive),12.7 µM (inactive),3.52 µM (inactive),6.46 µM (inactive),3.19 µM (inactive),9.53 µM (inactive),6.24 µM (inactive)
CC(C)=CCC/C(C)=C/CC/C(C)=C/C1CCC(=O)C1(C)C (stereo unspecified),17.4 µM (inactive),22.4 µM (inactive),17.3 µM (inactive),18.2 µM (inactive),44.6 µM (inactive),–,16.3 µM (inactive),22.6 µM (inactive),19.2 µM (inactive)
CSc1nnc(CCC(=O)Nc2c(C)cccc2C)o1,> 100 µM (inactive),> 100 µM (inactive),> 100 µM (inactive),> 100 µM (inactive),> 100 µM (inactive),–,> 100 µM (inactive),> 100 µM (inactive),> 100 µM (inactive)
